# Reference: ChEMBL document CHEMBL1129860, “Studies on penam sulfones III. Synthesis and -lactamase inhibitory activity of sodium (6R)-6-(-hydroxybenzyl)-2-methoxyiminomethyl-2-methylpenam-3-carboxylate 1,1-dioxide and sodium 2-acyl-2-methylpenam-3-carboxylate 1,1-dioxide” (1997)
# Assays:
# Enterobacter cloacae [1] = assay: In vitro minimal inhibitory concentration (MIC) of compound in combination with Ceftazidime (CAZ) showed synergic activity against Enterobacter cloacae E40002; assay type: functional
# Morganella morganii [2] = assay: In vitro minimal inhibitory concentration (MIC) of compound in combination with Ceftazidime (CAZ) showed synergic activity against Morganella morganii 36030; assay type: functional
# Klebsiella aerogenes [3] = assay: In vitro minimal inhibitory concentration (MIC) of compound in combination with Ceftazidime (CAZ) showed synergic activity against Enterobacter aerogenes 41003; assay type: functional
# Escherichia coli [4] = assay: In vitro minimal inhibitory concentration (MIC) of compound in combination with Ceftazidime (CAZ) showed synergic activity against Escherichia coli TEM 3; assay type: functional
# Pseudomonas aeruginosa [5] = assay: microbe, parasite or virus in culture
# Citrobacter freundii [6] = assay: In vitro minimal inhibitory concentration (MIC) of compound in combination with Ceftazidime (CAZ) showed synergic activity against Citrobacter freundii CT 76; assay type: functional
# Enterobacter cloacae [7] = assay: In vitro minimal inhibitory concentration (MIC) of compound in combination with Ceftazidime (CAZ) showed synergic activity against Enterobacter cloacae S-65; assay type: functional
# Enterobacter cloacae [8] = assay: In vitro minimal inhibitory concentration (MIC) of compound in combination with Ceftazidime (CAZ) showed synergic activity against Enterobacter cloacae 40011; assay type: functional
# Klebsiella aerogenes [9] = assay: In vitro minimal inhibitory concentration (MIC) of compound in combination with Ceftazidime (CAZ) showed synergic activity against Enterobacter aerogenes 41006; assay type: functional
# Morganella morganii [10] = assay: In vitro minimal inhibitory concentration (MIC) of compound in combination with Ceftazidime (CAZ) showed synergic activity against Morganella morganii 36014; assay type: functional
# Pseudomonas aeruginosa [11] = assay: microbe, parasite or virus in culture; remark: listed apart in the source
# Enterobacter cloacae [12] = assay: In vitro minimal inhibitory concentration (MIC) of compound in combination with Ceftazidime (CAZ) showed synergic activity against Enterobacter cloacae P99; assay type: functional
# Escherichia coli [13] = assay: In vitro minimal inhibitory concentration (MIC) of compound in combination with Ceftazidime (CAZ) showed synergic activity against Escherichia coli TEM 7; assay type: functional
# Klebsiella aerogenes [14] = assay: In vitro minimal inhibitory concentration (MIC) of compound in combination with Ceftazidime (CAZ) showed synergic activity against Enterobacter aerogenes S-97; assay type: functional
# Enterobacter cloacae [15] = assay: In vitro minimal inhibitory concentration (MIC) of compound in combination with Ceftazidime (CAZ) showed synergic activity against Enterobacter cloacae S-11; assay type: functional
# Klebsiella aerogenes [16] = assay: In vitro minimal inhibitory concentration (MIC) of compound in combination with Ceftazidime (CAZ) showed synergic activity against Enterobacter aerogenes 41004; assay type: functional
# Proteus vulgaris = assay: In vitro minimal inhibitory concentration (MIC) of compound in combination with Ceftazidime (CAZ) showed synergic activity against Proteus vulgaris CT 106; assay type: functional
# Citrobacter freundii [17] = assay: In vitro minimal inhibitory concentration (MIC) of compound in combination with Ceftazidime (CAZ) showed synergic activity against Citrobacter freundii 44032; assay type: functional
# Pseudomonas aeruginosa [18] = assay: In vitro minimal inhibitory concentration (MIC) of compound in combination with Ceftazidime (CAZ) showed synergic activity against Pseudomonas aeruginosa 46220 (DR-2); assay type: functional
# Klebsiella pneumoniae = assay: In vitro minimal inhibitory concentration (MIC) of compound in combination with Ceftazidime (CAZ) showed synergic activity against Klebsiella pneumoniae CTX 1; assay type: functional
# Pseudomonas aeruginosa [19] = assay: microbe, parasite or virus in culture; remark: listed apart in the source
# Description: In vitro minimal inhibitory concentration (MIC) of compound against Pseudomonas aeruginosa CT-122 in combination with Ceftazidime (CAZ)
# Pseudomonas aeruginosa [20] = assay: microbe, parasite or virus in culture; remark: listed apart in the source
# [21] = Morganella morganii, read-out: MIC
compound,measurement,setting,value
CC(C)(O/N=C(\C(=O)NC1C(=O)N2C(C(=O)[O-])=C(C[n+]3ccccc3)CSC12)c1csc(N)n1)C(=O)O.C[C@]1(Cn2ccnn2)[C@H](C(=O)[O-])N2C(=O)CC2S1(=O)=O.[Na+] (stereo not drawn),MIC,Enterobacter cloacae [1],200 µg/mL
same,MIC,Morganella morganii [2],< 0.25 µg/mL
same,MIC,Klebsiella aerogenes [3],12.5 µg/mL
same,MIC,Escherichia coli [4],≤ 0.2 µg/mL
same,MIC,Pseudomonas aeruginosa [5],16 µg/mL
same,MIC,Citrobacter freundii [6],50 µg/mL
same,MIC,Enterobacter cloacae [7],< 0.25 µg/mL
same,MIC,Enterobacter cloacae [8],3.13 µg/mL
same,MIC,Klebsiella aerogenes [9],100 µg/mL
same,MIC,Morganella morganii [10],<=0.2 ug ml-1
same,MIC,Morganella morganii [10]; [21],< 0.25 µg/mL
same,MIC,Pseudomonas aeruginosa [11],32 µg/mL
same,MIC,Enterobacter cloacae [12],12.5 µg/mL
same,MIC,Escherichia coli [13],≤ 0.2 µg/mL
same,MIC,Klebsiella aerogenes [14],1 µg/mL
same,MIC,Enterobacter cloacae [15],< 0.25 µg/mL
same,MIC,Klebsiella aerogenes [16],12.5 µg/mL
same,MIC,Proteus vulgaris,0.39 µg/mL
same,MIC,Citrobacter freundii [17],200 µg/mL
same,MIC,Pseudomonas aeruginosa [18],25 µg/mL
same,MIC,Klebsiella pneumoniae,0.78 µg/mL
CC(C)(O/N=C(\C(=O)N[C@@H]1C(=O)N2C(C(=O)[O-])=C(C[n+]3ccccc3)CS[C@H]12)c1csc(N)n1)C(=O)O.CC1(C)[C@H](C(=O)[O-])N2C(=O)[C@@H]([C@@H](O)c3ccccc3)[C@H]2S1(=O)=O.[Na+],MIC,Morganella morganii [2],< 0.25 µg/mL
same,MIC,Enterobacter cloacae [7],< 0.25 µg/mL
same,MIC,Pseudomonas aeruginosa [19],32 µg/mL
same,MIC,Morganella morganii [10]; [21],< 0.25 µg/mL
same,MIC,Klebsiella aerogenes [14],2 µg/mL
same,MIC,Enterobacter cloacae [15],< 0.25 µg/mL
same,MIC,Pseudomonas aeruginosa [20],16 µg/mL
